Data published in US20250064773A1, “TARGETING ERO1 ALPHA WITH AURONE DERIVATIVES” (West Virginia University Board of Governors on behalf of …, priority 2021, published 2025).

Columns and labels:
ERO1β = molecular target: T1, ERO1β (Homo sapiens, UniProt Q86YB8); assay: Cellular thermal shift assay (CETSA) in PC-9 cells, ERO1β; type: cell-based; settings: 100 μM
T1 construct: endogenous in cells; host or cells: PC-9
T1 sequence (Q86YB8 34-467): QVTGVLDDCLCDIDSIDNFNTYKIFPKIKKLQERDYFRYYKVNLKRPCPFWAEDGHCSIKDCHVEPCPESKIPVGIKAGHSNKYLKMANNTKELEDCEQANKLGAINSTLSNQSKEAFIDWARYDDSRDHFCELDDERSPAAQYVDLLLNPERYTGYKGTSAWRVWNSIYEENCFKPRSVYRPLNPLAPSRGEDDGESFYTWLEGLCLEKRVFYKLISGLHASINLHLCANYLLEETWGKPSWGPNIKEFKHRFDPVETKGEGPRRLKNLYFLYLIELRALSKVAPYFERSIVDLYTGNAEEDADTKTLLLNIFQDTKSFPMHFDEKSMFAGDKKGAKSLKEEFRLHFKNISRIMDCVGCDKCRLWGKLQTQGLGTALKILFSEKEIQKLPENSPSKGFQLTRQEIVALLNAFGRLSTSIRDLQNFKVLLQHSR
Excerpt: To date activity of T151742 towards other flavoenzymes has not been identified at this time. We utilized the Cellular Thermal Shift Assay (CETSA) to determine target engagement of T151742 in vitro using the non-small cell lung cancer (NSCLC) cell line PC-9. The EGFR driven PC-9 cell line was chosen as new treatment strategies are needed in EGFR driven NSCLC as most patients relapse and become resistant to current targeted therapies with development of further mutations such as T790M, C797S as well as emergence of EGFR independent tumors^42, 43. […] First, we determined the aggregation temperature (Tagg) of ERO1α, ERO1β, and LSD-1, which are all FAD dependent enzymes and potential in vitro targets of T15742. […]
Upon addition of T151742, Tagg was quantified for ERO1α, ERO1β, and LSD-1. Quantification of the average of n=3 independent experiments based on western blot analysis for ERO1α, ERO1β, and LSD-1. […] Cellular viability was determined by MTT assay. n=3 independent experiments performed in quadruplicates. ****p<0.0001; by two-way ANOVA.
Cell Lines: PC-9 cell line used was obtained from Sigma Aldrich and grown in RPMI 1640 medium with 10% fetal bovine serum and 1% penicillin/streptomycin. […] Plate was then read on the BioTek Cytation 5 at 530/590 nm. […]

MAO-A = molecular target: T2, MAO-A (Homo sapiens, UniProt P21397); settings: cited from earlier work
T2 sequence (P21397 1-527): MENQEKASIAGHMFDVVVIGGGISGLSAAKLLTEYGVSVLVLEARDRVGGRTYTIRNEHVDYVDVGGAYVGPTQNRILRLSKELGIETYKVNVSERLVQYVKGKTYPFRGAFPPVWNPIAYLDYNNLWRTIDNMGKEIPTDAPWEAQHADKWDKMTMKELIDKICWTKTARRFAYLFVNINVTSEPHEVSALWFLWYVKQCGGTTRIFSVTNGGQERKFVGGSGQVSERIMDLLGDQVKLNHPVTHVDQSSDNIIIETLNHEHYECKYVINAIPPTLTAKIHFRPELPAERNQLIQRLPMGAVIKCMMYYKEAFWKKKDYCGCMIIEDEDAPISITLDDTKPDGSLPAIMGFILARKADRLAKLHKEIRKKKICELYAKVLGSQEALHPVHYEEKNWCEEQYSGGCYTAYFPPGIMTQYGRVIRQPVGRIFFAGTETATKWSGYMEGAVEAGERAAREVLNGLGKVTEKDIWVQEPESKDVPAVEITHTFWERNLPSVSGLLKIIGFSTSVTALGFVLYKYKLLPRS

For CN(C)c1ccc(/C=C2\Oc3cc(O)ccc3C2=O)cc1 [Compound T151742], the “change of Tagg for ERO1β” value (ERO1β) is listed as “did not change” and the “inhibition of / activity against MAO-A” value (MAO-A) is listed as “showed activity”.
